From PubChem BioAssay AID328 (DTP/NCI, 2004)
Where “and” joins values, the source holds several entries; their conditions need not be identical. Equal entries are not always repeated. Inconclusive results and toxic doses are left out. How the source made its calls: active means survival T/C of 150% or more; inactive means T/C below 125% in these data.

Tested on: BDF1 mice, P388 leukemia ip, median survival T/C
Test: NCI In Vivo Anticancer Drug Screen. Data for tumor model P388 Leukemia (intraperitoneal) in B6D2F1 (BDF1) mice
Settings: endpoint: median survival time, higher = longer survival
How it was run: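 In tumour-bearing mice, survival after compound treatment is set against the vehicle group and given as a quotient.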

[1] = dose: 100.0 mg/kg/injection, schedule: Q01DX009 (ip), vehicle: Klucel (hydroxypropylcellulose) (HPC)
[2] = dose: 200.0 mg/kg/injection, schedule: Q01DX009 (ip), vehicle: Klucel (hydroxypropylcellulose) (HPC)
[3] = dose: 100.0 mg/kg/injection, schedule: Q04DX003 (ip), vehicle: saline with Tween-80
[4] = dose: 50.0 mg/kg/injection, schedule: Q01DX009 (ip), vehicle: Klucel (hydroxypropylcellulose) (HPC)
[5] = dose: 100.0 mg/kg/injection, schedule: Q01DX009 (ip), vehicle: saline with Tween-80
[6] = dose: 200.0 mg/kg/injection, schedule: Q01DX009 (ip), vehicle: saline with Tween-80
[7] = dose: 50.0 mg/kg/injection, schedule: Q01DX009 (ip), vehicle: saline with Tween-80

Measured: T/C

CCCCn1cnc2c(=S)nc[nH]c21
inactive: dose: 15.0 mg/kg/injection, schedule: Q01DX010 (ip), vehicle: water 100 % of control | dose: 16.0 mg/kg/injection, schedule: Q01DX010 (ip), vehicle: saline 100 % of control | dose: 30.0 mg/kg/injection, schedule: Q01DX010 (ip), vehicle: water 90 % of control | dose: 32.0 mg/kg/injection, schedule: Q01DX010 (ip), vehicle: saline 90 % of control and 95 % of control | dose: 64.0 mg/kg/injection, schedule: Q01DX010 (ip), vehicle: saline 104 % of control and 113 % of control | dose: 128.0 mg/kg/injection, schedule: Q01DX010 (ip), vehicle: saline 95 % of control and 104 % of control

O=C1N2CCOC2=NC1(c1ccccc1)c1ccccc1
inactive: dose: 12.5 mg/kg/injection, schedule: Q01DX009 (ip), vehicle: water 94 % of control | dose: 25.0 mg/kg/injection, schedule: Q01DX009 (ip), vehicle: water 100 % of control | dose: 50.0 mg/kg/injection, schedule: Q01DX009 (ip), vehicle: water 94 % of control | dose: 100.0 mg/kg/injection, schedule: Q01DX009 (ip), vehicle: water 94 % of control

O=C(COc1cc(Cl)c(Cl)cc1Cl)OCCOc1cc(Cl)c(Cl)cc1Cl
inactive: dose: 3.13 mg/kg/injection, schedule: Q01DX009 (ip), vehicle: saline with Tween-80 91 % of control | dose: 3.13 mg/kg/injection, schedule: Q04DX003 (ip), vehicle: saline with Tween-80 100 % of control | dose: 6.25 mg/kg/injection, schedule: Q04DX003 (ip), vehicle: saline with Tween-80 95 % of control | dose: 12.5 mg/kg/injection, schedule: Q04DX003 (ip), vehicle: saline with Tween-80 100 % of control

COc1ccc(C(=O)CCCCl)cc1
inactive: [1] 100 % of control | [2] 110 % of control | dose: 400.0 mg/kg/injection, schedule: Q01DX009 (ip), vehicle: Klucel (hydroxypropylcellulose) (HPC) 95 % of control

COc1cc([N+](=O)[O-])ccc1N
inactive: [3] 100 % of control

c1ccc(-n2nc3c(c2-c2ccc(OCCN4CCCC4)cc2)CCCc2ccccc2-3)cc1
inactive: dose: 25.0 mg/kg/injection, schedule: Q04DX003 (ip), vehicle: saline with Tween-80 120 % of control | dose: 50.0 mg/kg/injection, schedule: Q04DX003 (ip), vehicle: saline with Tween-80 120 % of control | [3] 100 % of control

O=[N+]([O-])c1cc([N+](=O)[O-])c(Nc2cccc3ccccc23)c([N+](=O)[O-])c1
inactive: [4] 100 % of control | [1] 100 % of control | [2] 103 % of control

CCCCCCCCCCCSCCCCCCCCCCC
inactive: [5] 100 % of control | [6] 100 % of control | dose: 400.0 mg/kg/injection, schedule: Q01DX009 (ip), vehicle: saline with Tween-80 100 % of control

CS(=O)(=O)/C=C(\c1ccccc1)c1cccs1
inactive: [7] 114 % of control | [5] 100 % of control | [6] 96 % of control

COc1ccc2c(c1)c1c(C)c3cnccc3c(C)c1n2CCCN
inactive: dose: 1.56 mg/kg/injection, schedule: Q01DX009 (ip), vehicle: saline 95 % of control | dose: 3.12 mg/kg/injection, schedule: Q01DX009 (ip), vehicle: saline 95 % of control | dose: 3.12 mg/kg/injection, schedule: Q04DX003 (ip), vehicle: saline 112 % of control | dose: 6.25 mg/kg/injection, schedule: Q01DX009 (ip), vehicle: saline 111 % of control | dose: 6.25 mg/kg/injection, schedule: Q04DX003 (ip), vehicle: saline 121 % of control | dose: 12.5 mg/kg/injection, schedule: Q01DX009 (ip), vehicle: saline 105 % of control | dose: 12.5 mg/kg/injection, schedule: Q04DX003 (ip), vehicle: saline 107 % of control | dose: 25.0 mg/kg/injection, schedule: Q04DX003 (ip), vehicle: saline 101 % of control and 104 % of control

CC1NC(C(=O)O)Cc2cc(O)c(O)cc21 (stereo unspecified)
inactive: dose: 12.5 mg/kg/injection, schedule: Q01DX009 (ip), vehicle: Klucel (hydroxypropylcellulose) (HPC) 109 % of control | dose: 25.0 mg/kg/injection, schedule: Q01DX009 (ip), vehicle: Klucel (hydroxypropylcellulose) (HPC) 109 % of control | [4] 92 % of control and 99 % of control | [1] 101 % of control

CS(=O)(=O)Nc1cc(Cl)c(NS(C)(=O)=O)c(Cl)c1Cl
inactive: dose: 100.0 mg/kg/injection, schedule: Q01DX001 (ip), vehicle: saline with Tween-80 100 % of control | dose: 200.0 mg/kg/injection, schedule: Q01DX001 (ip), vehicle: saline with Tween-80 103 % of control | dose: 400.0 mg/kg/injection, schedule: Q01DX001 (ip), vehicle: saline with Tween-80 100 % of control

CCCCn1cnc2c(SC3CCCC3)ncnc21
inactive: dose: 100.0 mg/kg/injection, schedule: Q01DX009 (ip), vehicle: other 100 % of control | dose: 100.0 mg/kg/injection, schedule: Q04DX003 (ip), vehicle: saline sonified 100 % of control | dose: 200.0 mg/kg/injection, schedule: Q01DX009 (ip), vehicle: other 90 % of control | dose: 200.0 mg/kg/injection, schedule: Q04DX003 (ip), vehicle: saline sonified 100 % of control | dose: 400.0 mg/kg/injection, schedule: Q01DX009 (ip), vehicle: other 120 % of control | dose: 400.0 mg/kg/injection, schedule: Q04DX003 (ip), vehicle: saline sonified 100 % of control

ClC(Cl)(Cl)C(N1CCN(c2ccccc2)CC1)N1CCN(c2ccccc2)CC1
inactive: [7] 104 % of control | [5] 100 % of control | [6] 95 % of control

COc1c(Br)cc(Br)cc1/C=C/[N+](=O)[O-]
inactive: dose: 6.25 mg/kg/injection, schedule: Q01DX009 (ip), vehicle: saline with Tween-80 114 % of control | dose: 12.5 mg/kg/injection, schedule: Q01DX009 (ip), vehicle: saline with Tween-80 114 % of control | dose: 25.0 mg/kg/injection, schedule: Q01DX009 (ip), vehicle: saline with Tween-80 116 % of control

CCSc1ncnc2[nH]ncc12
inactive: dose: 6.25 mg/kg/injection, schedule: Q01DX009 (ip), vehicle: saline + alcohol 101 % of control | dose: 12.5 mg/kg/injection, schedule: Q01DX009 (ip), vehicle: saline + alcohol 100 % of control | dose: 25.0 mg/kg/injection, schedule: Q01DX009 (ip), vehicle: saline + alcohol 100 % of control | dose: 50.0 mg/kg/injection, schedule: Q01DX009 (ip), vehicle: saline + alcohol 98 % of control

NNc1ccc([N+](=O)[O-])c2[nH][nH]c(=O)c12
inactive: [7] 105 % of control | [5] 107 % of control | [6] 107 % of control

COC(OC)C1(O)CC(C(C)C)OC(=O)N1 (stereo unspecified)
inactive: dose: 50.0 mg/kg/injection, schedule: Q04DX003 (ip), vehicle: saline 97 % of control | dose: 100.0 mg/kg/injection, schedule: Q04DX003 (ip), vehicle: saline 105 % of control

CCOC(=O)C(OCc1ccccc1)(C(=O)Cl)C(C)C (stereo unspecified)
inactive: [7] 118 % of control

N=N/C(=C\c1c(O)[nH]c2ccccc12)c1ccccc1
inactive: dose: 50.0 mg/kg/injection, schedule: Q04DX003 (ip), vehicle: Klucel (hydroxypropylcellulose) (HPC) 100 % of control | dose: 100.0 mg/kg/injection, schedule: Q04DX003 (ip), vehicle: Klucel (hydroxypropylcellulose) (HPC) 108 % of control | dose: 200.0 mg/kg/injection, schedule: Q04DX003 (ip), vehicle: Klucel (hydroxypropylcellulose) (HPC) 108 % of control | dose: 400.0 mg/kg/injection, schedule: Q04DX003 (ip), vehicle: Klucel (hydroxypropylcellulose) (HPC) 90 % of control
